The values below come from ChEMBL document CHEMBL3045406, “Enantioselective Relieving Activity of α-Methylbenzylphenylureas toward Bensulfuron-methyl Injury to Rice (Oryza sativa)” (Biosci Biotechnol Biochem, 1999).

Series [1] relates to Oryza sativa. Briefly: Relieving activity against bensulfuron-methyl induced injury to Oryza sativa (rice) assessed as growth rate at 1 uM (Rbv = 46 to 53%). The format is functional.
The subject of series [2] is Oryza sativa. Briefly: Safener indices, ratio of compound effect of Oryza sativa (rice) growth rate to relieving activity against bensulfuron-methyl induced injury to Oryza sativa growth rate at 1 uM.
Series [3] relates to Oryza sativa. Briefly: Safener indices, ratio of compound effect of Oryza sativa (rice) growth rate to relieving activity against bensulfuron-methyl induced injury to Oryza sativa growth rate at 10 uM.
The nature of series [4]: Hydrophobicity, log K of the compound. The series is classed as physicochemical. Particulars: octanol/water.
Series [5] deals with Oryza sativa. Briefly: Relieving activity against bensulfuron-methyl induced injury to Oryza sativa (rice) assessed as growth rate at 0.1 uM (Rbv = 46 to 53%). The format is functional.
For series [6], the system named is Oryza sativa. Briefly: Safener indices, ratio of compound effect of Oryza sativa (rice) growth rate to relieving activity against bensulfuron-methyl induced injury to Oryza sativa growth rate at 0.1 uM.
The subject of series [7] is Oryza sativa. Briefly: Effect on Oryza sativa (rice) assessed as growth rate at 1 uM relative to control. The series is classed as organism-based. Particulars: in vivo.
For series [8], the system named is Oryza sativa. Briefly: Effect on Oryza sativa (rice) assessed as growth rate at 10 uM relative to control. The series is classed as organism-based. Particulars: in vivo.
Series [9] has as its system Oryza sativa. Briefly: Relieving activity against bensulfuron-methyl induced injury to Oryza sativa (rice) assessed as growth rate at 10 uM (Rbv = 46 to 53%). The series is classed as functional.
For series [10], the system named is Oryza sativa. Briefly: Effect on Oryza sativa (rice) assessed as growth rate at 0.1 uM relative to control. The format is organism-based. Particulars: in vivo.

As to `C[C@H](NC(=O)Nc1ccc(Cl)cc1)c1ccccc1`, the Activity was determined as 83% in series [1]; 63% in series [5]; 101% in series [7]; 101% in series [8]; 88% in series [9]; 103% in [10]. The values for the Ratio in series [2], in [3] and in [6] were 64, 74 and 21, respectively. Besides, the “log K” value in series [4] amounted to 0.439.

On to `C[C@H](NC(=O)Nc1ccccc1Cl)c1ccccc1`, for which the Activity was 91% in series [1]; 75% in [5]; 104% in [7]; 106% in series [8]; 98% in series [9]; 99% in series [10]. The Ratio in series [2] worked out at 80; in series [3], 95; in series [6], 50. Further, in [4], the “log K” value amounted to 0.486.

Regarding `C[C@@H](NC(=O)Nc1cccc(Cl)c1)c1ccccc1`, the Activity came to 57% in series [1]; 50% in series [5]; 91% in series [7]; 83% in series [8]; 61% in series [9]; 97% in series [10]. Further, the Ratio in series [2] was 19; in [3], 32; in series [6], -2. For the same molecule, in [4], the “log K” value is 0.47.

`C[C@H](NC(=O)Nc1cccc(Cl)c1)c1ccccc1`: the Activity was 79% in series [1]; 68% in [5]; 99% in [7]; 103% in series [8]; 92% in series [9]; 103% in series [10]. In addition, the Ratio was 57 in series [2], 82 in [3] and 31 in series [6]. The “log K” value in series [4] was 0.47.

In the case of `C[C@@H](NC(=O)Nc1ccc(Cl)cc1)c1ccccc1`, the Activity in [1] amounted to 80%; in series [5], 50%; in series [7], 95%; in [8], 87%; in series [9] it was 84%; in series [10], 96%. Moreover, the Ratio turned out to be 61 in series [2], 71 in series [3] and 1 in series [6]. Further, in [4], the “log K” value came out at 0.439.

For the molecule `C[C@@H](NC(=O)Nc1ccccc1Br)c1ccccc1`, the Activity in series [1] worked out at 60%; in series [5], 53%; in series [7], 100%; in series [8], 94%; in [9], 79%; in series [10], 99%. Besides, the Ratio in series [2] was determined as 20; in series [3] it was 61; in [6] it was 6. For the same molecule, the “log K” value in [4] was determined as 0.504.

Regarding `C[C@H](NC(=O)Nc1ccccc1Br)c1ccccc1`, the Activity came to 87% in series [1]; 67% in series [5]; 99% in series [7]; 102% in [8]; 98% in [9]; 101% in series [10]. The Ratio in [2] was 74; in [3] it was 97; in [6], 32. The “log K” value in series [4] stood at 0.504.

In the case of `C[C@@H](NC(=O)Nc1cccc(Br)c1)c1ccccc1`, the Activity in [1] worked out at 80%; in series [5] it was 66%; in series [7], 100%; in series [8], 99%; in series [9], 92%; in [10], 100%. The Ratio in [2] was 59; in series [3], 85; in [6], 31. Besides, the “log K” value in series [4] amounted to 0.512.

`C[C@H](NC(=O)Nc1cccc(Br)c1)c1ccccc1`: the Activity in series [1] is listed as 80%; in series [5], 66%; in series [7], 100%; in series [8], 99%; in series [9] it was 92%; in series [10], 100%. The Ratio in series [2] amounted to 59; in [3], 85; in [6], 31. Also, the “log K” value in series [4] stood at 0.512.

Take `C[C@@H](NC(=O)Nc1ccc(Br)cc1)c1ccccc1`: the Activity amounted to 77% in [1]; 53% in series [5]; 95% in series [7]; 87% in series [8]; 86% in series [9]; 100% in series [10]. Moreover, the values for the Ratio in series [2], in [3] and in series [6] were 55, 76 and 5, respectively. Also, in [4], the “log K” value came to 0.488.

For `C[C@H](NC(=O)Nc1ccc(Br)cc1)c1ccccc1`, the Activity was 79% in [1]; 62% in [5]; 97% in series [7]; 96% in series [8]; 84% in series [9]; 98% in series [10]. Also, the Ratio was found to be 59 in series [2], 69 in [3] and 24 in series [6]. In addition, the “log K” value in series [4] is recorded as 0.488.

On to `C[C@@H](NC(=O)Nc1ccccc1I)c1ccccc1`, for which the Activity is 68% in series [1]; 61% in series [5]; 100% in series [7]; 96% in [8]; 84% in series [9]; 100% in series [10]. For the same molecule, the Ratio in series [2] is recorded as 34; in [3], 69; in series [6], 19. Also, the “log K” value in series [4] came out at 0.502.

Take `C[C@H](NC(=O)Nc1ccccc1I)c1ccccc1`: the Activity is listed as 85% in series [1]; 67% in series [5]; 100% in series [7]; 98% in [8]; 89% in [9]; 99% in series [10]. Further, the Ratio in series [2] is on record as 70; in series [3], 77; in series [6], 32. Besides, the “log K” value in series [4] came out at 0.502.

For the molecule `C[C@@H](NC(=O)Nc1cccc(I)c1)c1ccccc1`, the Activity in series [1] is on record as 66%; in series [5], 57%; in series [7], 75%; in [8], 73%; in series [9], 71%; in series [10], 81%. Further, the Ratio turned out to be 44 in series [2], 53 in series [3] and 26 in [6]. In series [4], the “log K” value is reported as 0.568.

On to `C[C@H](NC(=O)Nc1cccc(I)c1)c1ccccc1`, for which the Activity worked out at 83% in [1]; 72% in series [5]; 95% in series [7]; 93% in series [8]; 90% in series [9]; 98% in [10]. In addition, the Ratio in series [2] is listed as 66; in [3] it was 80; in [6], 43. The “log K” value in series [4] was found to be 0.568.

On to `C[C@@H](NC(=O)Nc1ccc(I)cc1)c1ccccc1`, for which the Activity in [1] is given as 78%; in series [5], 69%; in series [7] it was 91%; in series [8] it was 85%; in series [9], 79%; in series [10] it was 100%. Moreover, the Ratio in series [2] was 58; in series [3] it was 63; in series [6] it was 35. The “log K” value in series [4] is 0.556.

Consider `C[C@H](NC(=O)Nc1ccc(I)cc1)c1ccccc1`, for which the Activity worked out at 85% in series [1]; 70% in [5]; 97% in series [7]; 95% in series [8]; 92% in series [9]; 99% in [10]. Also, the figures for the Ratio in series [2], in series [3] and in [6] were 70, 85 and 39, respectively. For the same molecule, the “log K” value in [4] came out at 0.556.

On to `CCc1cccc(CC)c1NC(=O)N[C@H](C)c1ccccc1`, for which the Activity is listed as 63% in series [1]; 54% in series [5]; 101% in series [7]; 99% in series [8]; 77% in series [9]; 101% in series [10]. In addition, the Ratio in [2] is reported as 25; in series [3], 53; in series [6], 6. Also, the “log K” value in series [4] amounted to 0.523.

For `CCc1cccc(CC)c1NC(=O)N[C@@H](C)c1ccccc1`, the Activity in series [1] came out at 50%; in series [5], 52%; in series [7], 93%; in series [8], 83%; in [9], 46%; in [10], 101%. For the same molecule, the Ratio in series [2] was 6; in series [3] it was 6; in series [6] it was 1. The “log K” value in series [4] was determined as 0.523.

In the case of `C[C@@H](NC(=O)Nc1cc(C(C)(C)C)ccc1C(C)(C)C)c1ccccc1`, the Activity in [1] was 63%; in [5] it was 57%; in series [7] it was 99%; in [8], 99%; in series [9], 73%; in [10], 100%. The Ratio in [2] worked out at 23; in series [3], 43; in series [6], 11. The “log K” value in series [4] is given as 1.001.
